# From publication PMC11990524, “Design and Synthesis of Novel 6-(Substituted phenyl)-[1,3]dioxolo[4′,5′:4,5]benzo[1,2-d]thiazole Compounds as Tyrosinase Inhibitors: In Vitro and In Vivo Insights” (Molecules, 2025)
# Read-outs that look alike come from different tables or passages of the source.
# What was measured:
# mushroom tyrosinase = mushroom tyrosinase (Agaricus bisporus, UniProt C7FF04); assay: Mushroom tyrosinase inhibitory activity assay (L-dopa or L-tyrosine as substrate); format: biochemical; details: 50 μM, read-out: Inhibition (%, Mean ± SEM) at 50 μM (converted)
# Chain of mushroom tyrosinase (C7FF04 2-392): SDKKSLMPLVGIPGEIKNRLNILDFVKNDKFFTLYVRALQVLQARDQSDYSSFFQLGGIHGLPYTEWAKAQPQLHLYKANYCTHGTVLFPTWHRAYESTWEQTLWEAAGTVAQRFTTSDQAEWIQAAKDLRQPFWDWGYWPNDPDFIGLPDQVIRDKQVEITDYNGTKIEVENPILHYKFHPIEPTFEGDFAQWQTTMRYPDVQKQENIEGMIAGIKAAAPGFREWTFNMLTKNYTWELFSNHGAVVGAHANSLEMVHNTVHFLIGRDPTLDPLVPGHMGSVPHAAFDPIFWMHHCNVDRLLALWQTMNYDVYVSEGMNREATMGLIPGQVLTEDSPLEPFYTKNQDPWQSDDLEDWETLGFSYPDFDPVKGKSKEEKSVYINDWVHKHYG
# Description: In the inhibition experiments, L-dopa and L-tyrosine were used as enzyme substrates.
# The plate was incubated at 37 °C for 30 min, and absorbance of dopachrome formation was recorded spectrophotometrically at 475 nm using a VersaMax® Elisa (VE) microplate reader (Molecular Devices, San Jose, CA, USA) to determine tyrosinase inhibition activity. A VE microplate reader was used in all subsequent experiments to measure optical density. All experiments were carried out independently three times.
# [1] = ABTS radical scavenging assay; details: 100 μM
# Description: The ABTS^+ radical solution was obtained by mixing ABTS and potassium persulfate, an oxidizing reagent, and test samples (1–13 and Trolox [positive control]; final concentration: 100 μM) were added to determine their ABTS^+ radical scavenging ability by measuring the optical density at 732 nm.
# To prepare ABTS^•+ stock solution, equal amounts of ABTS (14 mM aqueous solution) and K2S2O8 (4.9 mM aqueous solution) were mixed and stored in the dark at 18 °C for 15 h. The prepared ABTS^•+ solution was diluted in ethanol to adjust the absorbance to 0.7 ± 0.01 at 732 nm. The test samples (Trolox [positive control] and compounds 1–13) were dissolved in a cosolvent of ethanol and DMSO (10:1 [v/v]). The adjusted ABTS^•+ solution (90 μL) and test sample (10 μL) were added to each well of a 96-well plate, and the plate was stored in a dark place at 18 °C for 2 min. The optical density was measured at 732 nm every min for 10 min. The test sample solutions were tested at a final concentration of 100 μM. The percentage of radical scavenging activity was calculated as follows: % Radical scavenging activity = 100 × [(Absc − Abst)/Absc], where Abst and Absc are optical densities of the test sample and control, respectively.
# [2] = DPPH radical scavenging assay; details: 500 μM; 30 min in the dark
# Description: DPPH radical scavenging activity was determined by mixing the DPPH solution with compounds 1–13, leaving it in the dark at 20 °C for 30 min, and measuring the optical density at 517 nm. Ascorbic acid (AA) was used as a positive control to compare the scavenging activity. All test samples were used at 500 μM.
# An aliquot (20 μL) of test sample (compounds 1–13 and ascorbic acid [positive control]; 5 mM) in DMSO and 180 μL DPPH solution (0.2 mM) in methanol were mixed in each well of a 96-well plate. The mixed solution was kept in the dark at 18 °C for 30 min. A VE microplate reader was used to measure the optical density of each well at 517 nm.
Structure (SMILES),inhibition at 50 µM (mushroom tyrosinase; substrate L-dopa) [%],inhibition at 50 µM (mushroom tyrosinase; substrate L-tyrosine) [%],ABTS^+ radical scavenging activity (inhibition rate) [1] [%],DPPH radical scavenging (inhibition) [2] [%]
"COc1ccc(-c2nc3cc4c(cc3s2)OCO4)cc1 [Compound 3, 6-(4-Methoxyphenyl)-[1,3]dioxolo[4′,5′:4,5]benzo[1,2-d]thiazole]",17.2,11.1,–,–
"COc1cc(-c2nc3cc4c(cc3s2)OCO4)cc(OC)c1OC [Compound 13, 6-(3,4,5-Trimethoxyphenyl)-[1,3]dioxolo[4′,5′:4,5]benzo[1,2-d]thiazole]",5,16.6,–,–
"Cc1c(C)c2c(c(C)c1O)CCC(C)(C(=O)O)O2 (stereo not drawn) [Trolox, reference compound]",–,–,99,–
"COc1ccc(-c2nc3cc4c(cc3s2)OCO4)cc1O [Compound 4, 5-([1,3]Dioxolo[4′,5′:4,5]benzo[1,2-d]thiazol-6-yl)-2-methoxyphenol]",63,25.5,> 77,–
"COc1cc(-c2nc3cc4c(cc3s2)OCO4)ccc1O [Compound 1, 4-([1,3]Dioxolo[4′,5′:4,5]benzo[1,2-d]thiazol-6-yl)-2-methoxyphenol]",1.7,25.9,> 77,–
"COc1ccc(-c2nc3cc4c(cc3s2)OCO4)c(OC)c1 [Compound 12, 6-(2,4-Dimethoxyphenyl)-[1,3]dioxolo[4′,5′:4,5]benzo[1,2-d]thiazole]",32.8,10.6,–,–
"O=C1O[C@H]([C@@H](O)CO)C(O)=C1O [AA, Ascorbic acid, reference compound]",–,–,–,96
"COc1ccc(-c2nc3cc4c(cc3s2)OCO4)cc1OC [Compound 11, 6-(3,4-Dimethoxyphenyl)-[1,3]dioxolo[4′,5′:4,5]benzo[1,2-d]thiazole]",19.5,0.82,–,–
"Oc1ccc(-c2nc3cc4c(cc3s2)OCO4)cc1Br [Compound 6, 4-([1,3]Dioxolo[4′,5′:4,5]benzo[1,2-d]thiazol-6-yl)-2-bromophenol]",27.9,17,–,–
"Oc1c(Br)cc(-c2nc3cc4c(cc3s2)OCO4)cc1Br [Compound 7, 4-([1,3]Dioxolo[4′,5′:4,5]benzo[1,2-d]thiazol-6-yl)-2,6-dibromophenol]",29.7,17.7,–,–
"COc1cc(-c2nc3cc4c(cc3s2)OCO4)cc(OC)c1O [Compound 10, 4-([1,3]Dioxolo[4′,5′:4,5]benzo[1,2-d]thiazol-6-yl)-2,6-dimethoxyphenol]",53.2,0.54,96,–
"CCOc1cc(-c2nc3cc4c(cc3s2)OCO4)ccc1O [Compound 2, 4-([1,3]Dioxolo[4′,5′:4,5]benzo[1,2-d]thiazol-6-yl)-2-ethoxyphenol]",50.3,14.9,> 77,–
"Oc1ccc(-c2nc3cc4c(cc3s2)OCO4)cc1O [Compound 8, 4-([1,3]Dioxolo[4′,5′:4,5]benzo[1,2-d]thiazol-6-yl)benzene-1,2-diol]",18.6,4.95,99,82
